# What was measured:
# [1] = system: human blood platelets; assay: ADP-induced platelet aggregation in platelet-rich plasma; assay type: cell-based; details: 10 μM ADP, mean ± SD, n = 6–9
# [2] = target: T1, human A2B adenosine receptor (Homo sapiens, UniProt P29275); details: read-out: Ki, A2B AR; USEF; HEK-A2B membranes; 25 nM [3H]-DPCPX
# T1 sequence (P29275 1-332): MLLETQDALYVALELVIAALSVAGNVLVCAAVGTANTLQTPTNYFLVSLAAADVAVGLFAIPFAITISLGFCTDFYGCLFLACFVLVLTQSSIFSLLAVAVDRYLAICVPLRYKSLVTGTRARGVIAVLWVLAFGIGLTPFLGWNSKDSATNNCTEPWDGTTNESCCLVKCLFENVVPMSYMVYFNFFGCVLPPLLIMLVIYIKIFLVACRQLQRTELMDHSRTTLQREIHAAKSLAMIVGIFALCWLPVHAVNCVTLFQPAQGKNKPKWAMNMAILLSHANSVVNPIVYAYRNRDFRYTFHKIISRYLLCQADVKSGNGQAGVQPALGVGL
# [3] = target: T2, human A3 adenosine receptor (Homo sapiens, UniProt P0DMS8); details: read-out: Ki, A3 AR; USEF; HeLa-A3 membranes; 10 nM [3H]-NECA
# T2 sequence (P0DMS8 1-318): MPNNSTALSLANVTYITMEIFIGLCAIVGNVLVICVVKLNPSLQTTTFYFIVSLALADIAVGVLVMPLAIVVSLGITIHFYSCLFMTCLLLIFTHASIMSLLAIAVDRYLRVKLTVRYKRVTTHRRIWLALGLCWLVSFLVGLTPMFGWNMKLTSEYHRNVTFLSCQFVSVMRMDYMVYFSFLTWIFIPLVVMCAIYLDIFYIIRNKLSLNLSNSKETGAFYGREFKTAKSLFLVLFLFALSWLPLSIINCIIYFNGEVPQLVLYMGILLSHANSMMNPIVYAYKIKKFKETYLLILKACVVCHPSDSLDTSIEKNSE
# [4] = system: human blood platelets; assay: Formation of thrombus on collagen in flow conditions; assay type: cell-based; details: whole blood perfused over collagen; 50 μM compound; n = 9
# [5] = system: human blood platelets; assay: Aggregation of blood platelets in whole blood; details: for effect on ADP-induced platelet aggregation in whole blood: ADP, 10, 30, 50 μM compound, n = 13; for effect on arachidonic acid-induced platelet aggregation in whole blood: data not shown; for effect on collagen-induced platelet aggregation in whole blood: collagen 1 μg/mL
# [6] = target: T3, human A1 adenosine receptor (Homo sapiens, UniProt P30542); assay: biochemical
# T3 sequence (P30542 1-326): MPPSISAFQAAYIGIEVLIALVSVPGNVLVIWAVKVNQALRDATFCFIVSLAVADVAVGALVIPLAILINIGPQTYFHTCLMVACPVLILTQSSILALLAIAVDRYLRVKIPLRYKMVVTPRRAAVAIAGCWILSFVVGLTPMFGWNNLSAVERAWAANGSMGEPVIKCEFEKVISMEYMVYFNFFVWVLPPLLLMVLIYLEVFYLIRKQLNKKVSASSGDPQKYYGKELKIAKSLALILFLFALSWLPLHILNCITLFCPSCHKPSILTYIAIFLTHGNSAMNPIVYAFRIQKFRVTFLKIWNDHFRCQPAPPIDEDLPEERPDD
# [7] = target: T4, human A2A adenosine receptor (Homo sapiens, UniProt P29274); details: 50 μM compound; Fig. 1
# [8] = target: T4, human A2A adenosine receptor; assay: biochemical
# [9] = target: A3 receptor; details: read-out: experimental Ki, A3 AR; ref PubChem CID 9958472; cited from earlier work
# T4 sequence (P29274 whole entry): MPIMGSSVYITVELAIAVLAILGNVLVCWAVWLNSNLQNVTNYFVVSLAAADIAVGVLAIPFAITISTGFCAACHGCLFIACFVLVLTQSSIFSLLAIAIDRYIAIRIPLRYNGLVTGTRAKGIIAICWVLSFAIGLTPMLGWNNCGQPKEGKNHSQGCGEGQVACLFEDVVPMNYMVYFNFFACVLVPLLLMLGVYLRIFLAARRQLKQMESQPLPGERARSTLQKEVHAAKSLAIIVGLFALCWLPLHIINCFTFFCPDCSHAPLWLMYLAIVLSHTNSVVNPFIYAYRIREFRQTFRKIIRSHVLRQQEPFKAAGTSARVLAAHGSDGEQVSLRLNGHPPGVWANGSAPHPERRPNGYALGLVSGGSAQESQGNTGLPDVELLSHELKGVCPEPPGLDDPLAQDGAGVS
Ki [6] [µM],radioligand displacement at A2A receptor [7],IC50 [8] [µM],Compound,"area under the aggregation curve, ADP-induced platelet aggregation ([1]; 10 μM compound) [arbitrary units]","area under the aggregation curve, ADP-induced platelet aggregation ([1]; 50 μM compound) [arbitrary units]",Ki [2] [µM],Ki [3] [µM],effect on thrombus formation on collagen under flow [4],effect on ADP-induced platelet aggregation in whole blood [5],effect on arachidonic acid-induced platelet aggregation in whole blood [5],effect on collagen-induced platelet aggregation in whole blood [5],Ki [9] [µM]
–,–,–,5′-ethylcarbamoyl-N^6-(3-phenylpropyl)adenosine [Compound 18],630.0 ± 80.3,336.8 ± 108.5,1.38,0.0045,did not exert an inhibitory effect,significantly inhibited,no effect,significantly inhibited,–
3.34,at least 50%,22 ± 4.4,"OC[C@H]1O[C@@H](n2cnc3c(NCCCc4ccccc4)nc(Cl)nc32)[C@H](O)[C@@H]1O [Compound 24, 6-N-(3-phenylpropyl)-2-chloroadenosine]",–,–,–,–,–,–,–,–,–
–,at least 50%,–,"OC[C@H]1O[C@@H](n2cnc3c(NCCCc4ccccc4)ncnc32)[C@H](O)[C@@H]1O [Compound 40, N^6-(3-phenylpropyl)adenosine]",–,–,–,–,smaller than the thrombi in the untreated samples,significantly decreased,did not inhibit,did not inhibit,–
–,–,–,CNC(=O)[C@H]1O[C@@H](n2cnc3c(NCc4ccc(N)c(I)c4)ncnc32)[C@H](O)[C@@H]1O [I-AB-MECA],–,–,–,–,–,–,–,–,0.0012 to 0.0021

# — PMC8448983 (European journal of medicinal chemistry, 2021)
